Source: BindingDB's records for PubMed 38988222 (Hebei University of Science & Technology)
pIC50: −log10 of the molar value.

What was measured:
[1] = target: PI3K catalytic subunit gamma; assay: Inhibition of P13Kgamma (unknown origin) in the presence of ATP by scintillation proximity assay
[2] = Inhibition of Ribosomal protein S6 kinase in human THP-1 cells by ELISA analysis
[3] = target: PI3K catalytic subunit beta; assay: Inhibition of P13Kbeta (unknown origin) in the presence of ATP by scintillation proximity assay

Structure (SMILES)	pIC50 [1]	pIC50 [3]	other results
Cc1cc(S(=O)(=O)N[C@H]2CC[C@H](O)CC2)ccc1-c1cnc2c(N)c(Cl)ccn12	> 7.00		
CC(NC(=O)c1c(N)nn2cccnc12)c1cc(Cl)c2c(C#N)ncn2c1N1CCS(=O)(=O)C(C)C1 (stereo unspecified)			pIC50 [2]: > 6.52
Cc1ncc(-c2cc(-c3ccc(S(=O)(=O)NCC(C)(C)O)cc3C)cnc2N)o1		5.77	
Cc1nnc(-c2cc(-c3cc4c(c(S(C)(=O)=O)c3)C(=O)N([C@@H](C)C3CC3)C4)ccn2)[nH]1 [US11396502, Example 12]	> 7.00		
Clc1ccc(Cn2cc(-c3ccnc(-c4ncc(-c5ccccc5)[nH]4)c3)cn2)cc1 [US11352340, Example 1]	> 7.30		
Cc1cc(S(=O)(=O)N[C@H]2CC[C@H](O)CC2)ccc1-c1cnc(N)c(C(=O)C2CC2)n1		6.40	
